The source of these data is article PMC9856672, “SGC-CAMKK2-1: A Chemical Probe for CAMKK2” (Cells, 2023).

In one assay the target is T1, MELK (Homo sapiens, UniProt Q14680).
T1 construct: purchased Eurofins DiscoverX KINOMEscan
The assay can be described thus: KINOMEscan 1 μM, MELK. The class given is binding. The settings on record: 1000 nM; Entrez MELK; read-out: Percent Control. The text has this:
(§1) Supplement cells-12-00287-s001.zip/File S2. KinomeScan data for the CAMKK2 probe and negative control.xlsx, sheet "SGC-CAMKK2-1" | column: Percent Control

The target of a further assay is T2, BRAF(V600E) (Homo sapiens, UniProt P15056, V600E).
T2 construct: purchased Eurofins DiscoverX KINOMEscan
T2 sequence (P15056 whole entry V600E): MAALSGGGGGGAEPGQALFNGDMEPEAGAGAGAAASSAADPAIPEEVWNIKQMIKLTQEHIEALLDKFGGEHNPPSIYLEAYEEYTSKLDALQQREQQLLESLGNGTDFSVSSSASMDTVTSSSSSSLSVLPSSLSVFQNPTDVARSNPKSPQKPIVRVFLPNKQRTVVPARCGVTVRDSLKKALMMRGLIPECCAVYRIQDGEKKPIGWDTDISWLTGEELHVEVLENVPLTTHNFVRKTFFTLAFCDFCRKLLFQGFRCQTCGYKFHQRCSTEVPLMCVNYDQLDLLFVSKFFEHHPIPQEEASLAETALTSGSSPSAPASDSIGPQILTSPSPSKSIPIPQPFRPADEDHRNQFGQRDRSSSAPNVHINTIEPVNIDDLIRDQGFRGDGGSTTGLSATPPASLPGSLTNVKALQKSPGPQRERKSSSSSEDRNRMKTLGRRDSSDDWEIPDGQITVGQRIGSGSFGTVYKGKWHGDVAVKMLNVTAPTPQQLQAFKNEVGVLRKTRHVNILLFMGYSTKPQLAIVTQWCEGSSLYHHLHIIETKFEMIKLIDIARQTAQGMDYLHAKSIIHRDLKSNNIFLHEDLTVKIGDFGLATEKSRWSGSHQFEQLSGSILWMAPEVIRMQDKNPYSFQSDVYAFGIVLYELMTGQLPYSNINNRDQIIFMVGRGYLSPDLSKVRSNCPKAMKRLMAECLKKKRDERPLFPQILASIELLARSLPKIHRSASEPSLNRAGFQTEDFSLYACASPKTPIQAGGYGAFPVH
The assay can be described thus: KINOMEscan 1 μM, BRAF(V600E). The assay is classed as binding. To be noted: 1000 nM; Entrez BRAF; read-out: Percent Control.
Excerpt: as §1

The next assay has as its target T3, FYN (Homo sapiens, UniProt P06241).
T3 construct: purchased Eurofins DiscoverX KINOMEscan
The assay is described as follows: KINOMEscan 1 μM, FYN. The assay is classed as binding. To be noted: 1000 nM; Entrez FYN; read-out: Percent Control.
Excerpt: as §1

A further assay deals with T4, PRKD2 (Homo sapiens, UniProt Q9BZL6).
T4 construct: purchased Eurofins DiscoverX KINOMEscan
T4 sequence (Q9BZL6 whole entry): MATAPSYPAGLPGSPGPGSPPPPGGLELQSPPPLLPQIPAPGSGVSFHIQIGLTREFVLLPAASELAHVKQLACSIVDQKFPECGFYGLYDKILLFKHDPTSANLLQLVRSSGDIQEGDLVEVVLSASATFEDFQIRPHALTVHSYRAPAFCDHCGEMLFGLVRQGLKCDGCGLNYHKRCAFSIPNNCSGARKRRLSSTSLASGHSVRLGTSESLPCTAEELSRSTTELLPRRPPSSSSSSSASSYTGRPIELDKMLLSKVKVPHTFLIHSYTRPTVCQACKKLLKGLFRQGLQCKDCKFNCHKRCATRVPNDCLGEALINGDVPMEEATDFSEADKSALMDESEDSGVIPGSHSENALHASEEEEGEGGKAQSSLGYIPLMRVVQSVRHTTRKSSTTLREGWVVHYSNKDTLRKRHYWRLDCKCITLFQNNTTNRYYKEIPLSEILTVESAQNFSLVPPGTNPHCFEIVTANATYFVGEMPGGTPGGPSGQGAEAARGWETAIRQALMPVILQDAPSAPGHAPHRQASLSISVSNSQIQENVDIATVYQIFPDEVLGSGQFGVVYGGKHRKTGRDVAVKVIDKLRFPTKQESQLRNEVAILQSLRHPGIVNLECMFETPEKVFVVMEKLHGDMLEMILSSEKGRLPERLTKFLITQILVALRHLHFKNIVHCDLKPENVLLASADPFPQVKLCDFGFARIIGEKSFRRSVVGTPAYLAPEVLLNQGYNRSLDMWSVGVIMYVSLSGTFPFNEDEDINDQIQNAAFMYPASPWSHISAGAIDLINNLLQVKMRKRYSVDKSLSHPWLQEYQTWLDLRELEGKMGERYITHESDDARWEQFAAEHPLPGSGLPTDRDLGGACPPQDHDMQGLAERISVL
The assay is described as follows: DiscoverX KINOMEscan binding assay at 1 μM, PRKD2. To be noted: Compound Concentration 1000 nM, read-out: Percent Control.
Excerpt: as §1

The next assay concerns the target T5, ALK(L1196M) (Homo sapiens, UniProt Q9UM73, L1196M).
T5 construct: purchased Eurofins DiscoverX KINOMEscan
The assay can be described thus: KINOMEscan 1 μM, ALK(L1196M). The assay is classed as binding. The settings on record: 1000 nM; Entrez ALK; read-out: Percent Control.
Excerpt: as §1

A further assay deals with T6, ACVR1B (Homo sapiens, UniProt P36896).
T6 construct: purchased Eurofins DiscoverX KINOMEscan
T6 sequence (P36896 24-505): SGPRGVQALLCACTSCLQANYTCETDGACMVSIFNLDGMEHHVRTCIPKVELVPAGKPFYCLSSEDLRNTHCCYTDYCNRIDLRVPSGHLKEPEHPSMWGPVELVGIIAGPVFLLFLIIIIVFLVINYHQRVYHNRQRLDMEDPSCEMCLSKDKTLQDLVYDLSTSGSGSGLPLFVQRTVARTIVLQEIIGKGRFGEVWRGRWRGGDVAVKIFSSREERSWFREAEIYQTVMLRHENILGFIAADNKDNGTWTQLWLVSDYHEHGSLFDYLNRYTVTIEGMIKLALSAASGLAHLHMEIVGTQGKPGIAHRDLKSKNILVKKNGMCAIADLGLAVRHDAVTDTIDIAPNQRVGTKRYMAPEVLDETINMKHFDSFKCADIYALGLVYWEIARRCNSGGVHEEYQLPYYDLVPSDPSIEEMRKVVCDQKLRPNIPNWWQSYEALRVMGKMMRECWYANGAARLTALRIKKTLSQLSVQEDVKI
The assay can be described thus: KINOMEscan 1 μM, ACVR1B. The class given is binding. The settings on record: 1000 nM; Entrez ACVR1B; read-out: Percent Control.
Excerpt: as §1

A further assay has as its target T7, SGK2 (Homo sapiens, UniProt Q9HBY8).
T7 construct: purchased Eurofins DiscoverX KINOMEscan
The assay can be described thus: KINOMEscan 1 μM, SGK2. The class given is binding. To be noted: 1000 nM; Entrez SGK2; read-out: Percent Control.
Excerpt: as §1

Another assay deals with T8, EGFR(G719S) (Homo sapiens, UniProt P00533, G719S).
T8 construct: purchased Eurofins DiscoverX KINOMEscan
T8 sequence (P00533 25-1210 G719S): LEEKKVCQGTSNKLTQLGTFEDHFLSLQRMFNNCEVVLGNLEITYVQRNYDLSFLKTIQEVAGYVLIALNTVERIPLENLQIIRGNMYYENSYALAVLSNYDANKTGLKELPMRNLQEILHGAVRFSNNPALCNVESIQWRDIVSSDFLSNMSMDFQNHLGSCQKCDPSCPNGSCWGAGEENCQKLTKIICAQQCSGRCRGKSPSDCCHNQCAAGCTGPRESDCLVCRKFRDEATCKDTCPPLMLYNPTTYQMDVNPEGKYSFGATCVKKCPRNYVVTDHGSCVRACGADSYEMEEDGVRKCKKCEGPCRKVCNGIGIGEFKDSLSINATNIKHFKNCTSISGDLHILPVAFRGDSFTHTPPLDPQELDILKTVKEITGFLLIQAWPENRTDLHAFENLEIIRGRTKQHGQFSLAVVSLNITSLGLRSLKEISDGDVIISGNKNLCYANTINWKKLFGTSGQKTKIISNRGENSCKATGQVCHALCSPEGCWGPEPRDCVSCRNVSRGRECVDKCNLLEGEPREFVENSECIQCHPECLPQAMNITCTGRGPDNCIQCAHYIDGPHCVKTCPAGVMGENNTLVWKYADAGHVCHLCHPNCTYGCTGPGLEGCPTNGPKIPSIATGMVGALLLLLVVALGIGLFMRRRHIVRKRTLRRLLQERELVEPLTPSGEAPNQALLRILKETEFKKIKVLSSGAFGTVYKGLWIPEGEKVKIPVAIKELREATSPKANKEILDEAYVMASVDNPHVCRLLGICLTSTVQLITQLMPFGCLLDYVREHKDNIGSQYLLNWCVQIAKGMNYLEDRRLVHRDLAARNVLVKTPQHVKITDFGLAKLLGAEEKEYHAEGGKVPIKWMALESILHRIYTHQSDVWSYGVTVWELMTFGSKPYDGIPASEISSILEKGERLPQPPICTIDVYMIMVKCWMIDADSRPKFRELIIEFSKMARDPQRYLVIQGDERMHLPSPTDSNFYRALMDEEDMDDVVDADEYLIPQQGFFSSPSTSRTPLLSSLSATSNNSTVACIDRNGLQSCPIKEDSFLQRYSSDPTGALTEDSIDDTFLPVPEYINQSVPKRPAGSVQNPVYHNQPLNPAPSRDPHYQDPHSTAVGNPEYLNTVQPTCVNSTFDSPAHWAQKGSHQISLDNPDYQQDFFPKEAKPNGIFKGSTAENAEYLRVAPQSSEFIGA
The assay can be described thus: KINOMEscan 1 μM, EGFR(G719S). The class given is binding. To be noted: 1000 nM; Entrez EGFR; read-out: Percent Control.
Excerpt: as §1

Another assay concerns the target T9, PHKG2 (Homo sapiens, UniProt P15735).
T9 construct: purchased Eurofins DiscoverX KINOMEscan
The assay can be described thus: DiscoverX KINOMEscan binding assay at 1 μM, PHKG2. The settings on record: Compound Concentration 1000 nM, read-out: Percent Control.
Excerpt: as §1

A further assay addresses T10, PAK4 (Homo sapiens, UniProt O96013).
T10 construct: purchased Eurofins DiscoverX KINOMEscan
The assay is described as follows: KINOMEscan 1 μM, PAK4. The class given is binding. To be noted: 1000 nM; Entrez PAK4; read-out: Percent Control.
Excerpt: as §1

Assay [1] has as its target T11, S6K1 (Homo sapiens, UniProt P23443).
T11 construct: purchased Eurofins DiscoverX KINOMEscan
The assay can be described thus: DiscoverX KINOMEscan binding assay at 1 μM, S6K1. The settings on record: S6K1 (RPS6KB1); Compound Concentration 1000 nM; read-out: Percent Control.
Excerpt: as §1

The target in a further assay is T12, BRK (Homo sapiens, UniProt Q13882).
T12 construct: purchased Eurofins DiscoverX KINOMEscan
T12 sequence (Q13882 whole entry): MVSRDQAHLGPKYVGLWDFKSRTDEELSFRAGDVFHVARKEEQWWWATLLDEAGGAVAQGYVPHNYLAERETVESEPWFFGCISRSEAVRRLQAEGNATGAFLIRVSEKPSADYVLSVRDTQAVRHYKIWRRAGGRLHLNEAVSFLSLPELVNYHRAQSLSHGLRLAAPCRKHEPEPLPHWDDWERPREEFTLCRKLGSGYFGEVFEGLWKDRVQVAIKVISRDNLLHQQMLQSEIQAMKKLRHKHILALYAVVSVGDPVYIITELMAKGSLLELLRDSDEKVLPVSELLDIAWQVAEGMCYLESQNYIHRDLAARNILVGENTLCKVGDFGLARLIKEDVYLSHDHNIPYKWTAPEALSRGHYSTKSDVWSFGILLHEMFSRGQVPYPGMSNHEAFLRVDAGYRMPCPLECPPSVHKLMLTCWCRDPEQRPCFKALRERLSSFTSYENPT
The assay can be described thus: KINOMEscan 1 μM, BRK. The assay is classed as binding. The settings on record: 1000 nM; Entrez PTK6; read-out: Percent Control.
Excerpt: as §1

Assay [2] addresses T13, TYK2(JH1domain-catalytic) (Homo sapiens, UniProt P29597).
T13 construct: TYK2(JH1domain-catalytic); purchased Eurofins DiscoverX KINOMEscan
The assay is described as follows: DiscoverX KINOMEscan binding assay at 1 μM, TYK2(JH1domain-catalytic). The settings on record: Compound Concentration 1000 nM, read-out: Percent Control.
Excerpt: as §1

In the next assay the target is T14, PIK3CA(E545K) (Homo sapiens, UniProt P42336, E545K).
T14 construct: purchased Eurofins DiscoverX KINOMEscan
The assay is described as follows: KINOMEscan 1 μM, PIK3CA(E545K). The settings on record: 1000 nM; Entrez PIK3CA; read-out: Percent Control. The assay is classed as binding.
Excerpt: as §1

The next assay addresses T15, ASK2 (Homo sapiens, UniProt O95382).
T15 construct: purchased Eurofins DiscoverX KINOMEscan
The assay can be described thus: KINOMEscan 1 μM, ASK2. The settings on record: 1000 nM; Entrez MAP3K6; read-out: Percent Control. The class given is binding.
Excerpt: as §1

A further assay concerns the target T16, NEK2 (Homo sapiens, UniProt P51955).
T16 construct: purchased Eurofins DiscoverX KINOMEscan
The assay is described as follows: KINOMEscan 1 μM, NEK2. The class given is binding. To be noted: 1000 nM; Entrez NEK2; read-out: Percent Control.
Excerpt: as §1

Another assay deals with T17, OSR1 (Homo sapiens, UniProt O95747).
T17 construct: purchased Eurofins DiscoverX KINOMEscan
T17 sequence (O95747 whole entry): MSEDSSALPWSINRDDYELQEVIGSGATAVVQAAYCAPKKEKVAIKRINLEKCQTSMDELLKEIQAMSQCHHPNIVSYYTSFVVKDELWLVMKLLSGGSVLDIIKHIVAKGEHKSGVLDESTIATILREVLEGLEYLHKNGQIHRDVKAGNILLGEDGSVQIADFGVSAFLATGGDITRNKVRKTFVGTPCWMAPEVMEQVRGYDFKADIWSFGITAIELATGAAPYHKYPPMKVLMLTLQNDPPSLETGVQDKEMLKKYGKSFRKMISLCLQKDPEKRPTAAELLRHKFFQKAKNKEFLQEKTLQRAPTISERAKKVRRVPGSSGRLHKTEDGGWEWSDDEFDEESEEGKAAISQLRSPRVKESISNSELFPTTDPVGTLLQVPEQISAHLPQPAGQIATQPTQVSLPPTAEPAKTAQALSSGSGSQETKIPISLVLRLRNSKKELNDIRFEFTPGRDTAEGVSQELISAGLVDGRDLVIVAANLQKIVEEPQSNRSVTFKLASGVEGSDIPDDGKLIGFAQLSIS
The assay is described as follows: KINOMEscan 1 μM, OSR1. The class given is binding. The settings on record: 1000 nM; Entrez OXSR1; read-out: Percent Control.
Excerpt: as §1

The target of the next assay is T18, KIT(D816V) (Homo sapiens, UniProt P10721, D816V).
T18 construct: purchased Eurofins DiscoverX KINOMEscan
The assay can be described thus: KINOMEscan 1 μM, KIT(D816V). The assay is classed as binding. To be noted: 1000 nM; Entrez KIT; read-out: Percent Control.
Excerpt: as §1

The target in assay [3] is T19, ABL1(F317I)-phosphorylated (Homo sapiens, UniProt P00519, F317I).
T19 construct: purchased Eurofins DiscoverX KINOMEscan
The assay can be described thus: KINOMEscan at 1 μM, ABL1(F317I)-phosphorylated. The assay is classed as binding. The settings on record: 1000 nM, read-out: Percent Control. The text has this:
(§2) Supplement cells-12-00287-s001.zip/File S2. KinomeScan data for the CAMKK2 probe and negative control.xlsx, sheet "SGC-CAMKK2-1N" | column: Percent Control

Another assay has as its system FLT3(ITD,F691L). The assay is described as follows: KINOMEscan at 1 μM, FLT3(ITD,F691L). The class given is binding, human. To be noted: 1000 nM.
Excerpt: as §2

The next assay deals with T20, CDK3 (Homo sapiens, UniProt Q00526).
T20 construct: purchased Eurofins DiscoverX KINOMEscan
The assay is described as follows: KINOMEscan at 1 μM, CDK3. To be noted: 1000 nM, read-out: Percent Control. The assay is classed as binding.
Excerpt: as §2

The next assay concerns the target T21, CDC2L2 (Homo sapiens, UniProt Q9UQ88).
T21 construct: purchased Eurofins DiscoverX KINOMEscan
The assay is described as follows: KINOMEscan at 1 μM, CDC2L2. The class given is binding. The settings on record: 1000 nM, read-out: Percent Control.
Excerpt: as §2

The next assay addresses T22, NEK5 (Homo sapiens, UniProt Q6P3R8).
T22 construct: purchased Eurofins DiscoverX KINOMEscan
The assay is described as follows: KINOMEscan at 1 μM, NEK5. The class given is binding. The settings on record: 1000 nM, read-out: Percent Control.
Excerpt: as §2

In the next assay the target is T23, CAMK4 (Homo sapiens, UniProt Q16566).
T23 construct: purchased Eurofins DiscoverX KINOMEscan
The assay can be described thus: KINOMEscan at 1 μM, CAMK4. The assay is classed as binding. The settings on record: 1000 nM, read-out: Percent Control.
Excerpt: as §2

In another assay the target is T24, MERTK (Homo sapiens, UniProt Q12866).
T24 construct: purchased Eurofins DiscoverX KINOMEscan
The assay is described as follows: KINOMEscan at 1 μM, MERTK. The class given is binding. To be noted: 1000 nM, read-out: Percent Control.
Excerpt: as §2

The next assay concerns the target T25, CHEK1 (Homo sapiens, UniProt O14757).
T25 construct: purchased Eurofins DiscoverX KINOMEscan
The assay is described as follows: KINOMEscan at 1 μM, CHEK1. The class given is binding. To be noted: 1000 nM, read-out: Percent Control.
Excerpt: as §2

The target in the next assay is T26, CIT (Homo sapiens, UniProt O14578).
T26 construct: purchased Eurofins DiscoverX KINOMEscan
The assay can be described thus: KINOMEscan at 1 μM, CIT. The settings on record: 1000 nM, read-out: Percent Control. The class given is binding.
Excerpt: as §2

Another assay concerns the target T27, AMPK-alpha2 (Homo sapiens, UniProt P54646).
T27 construct: purchased Eurofins DiscoverX KINOMEscan
The assay is described as follows: KINOMEscan at 1 μM, AMPK-alpha2. The class given is binding. The settings on record: 1000 nM, read-out: Percent Control.
Excerpt: as §2

Assay [4] deals with T11, S6K1. The assay can be described thus: KINOMEscan at 1 μM, S6K1. The class given is binding. To be noted: 1000 nM, read-out: Percent Control.
Excerpt: as §2

For a further assay, the target named is T28, MEK3 (Homo sapiens, UniProt P46734).
T28 construct: purchased Eurofins DiscoverX KINOMEscan
The assay can be described thus: KINOMEscan at 1 μM, MEK3. The class given is binding. To be noted: 1000 nM, read-out: Percent Control.
Excerpt: as §2

The next assay deals with T29, TTK (Homo sapiens, UniProt P33981).
T29 construct: purchased Eurofins DiscoverX KINOMEscan
The assay is described as follows: KINOMEscan at 1 μM, TTK. The class given is binding. To be noted: 1000 nM, read-out: Percent Control.
Excerpt: as §2

For another assay, the target named is T30, FLT3-autoinhibited (Homo sapiens, UniProt P36888).
T30 construct: purchased Eurofins DiscoverX KINOMEscan
The assay can be described thus: KINOMEscan at 1 μM, FLT3-autoinhibited. The class given is binding. The settings on record: 1000 nM, read-out: Percent Control.
Excerpt: as §2

The next assay has as its target T31, VEGFR2 (Homo sapiens, UniProt P35968).
T31 construct: purchased Eurofins DiscoverX KINOMEscan
The assay can be described thus: KINOMEscan at 1 μM, VEGFR2. The class given is binding. To be noted: 1000 nM, read-out: Percent Control.
Excerpt: as §2

T11 sequence (P23443 whole entry): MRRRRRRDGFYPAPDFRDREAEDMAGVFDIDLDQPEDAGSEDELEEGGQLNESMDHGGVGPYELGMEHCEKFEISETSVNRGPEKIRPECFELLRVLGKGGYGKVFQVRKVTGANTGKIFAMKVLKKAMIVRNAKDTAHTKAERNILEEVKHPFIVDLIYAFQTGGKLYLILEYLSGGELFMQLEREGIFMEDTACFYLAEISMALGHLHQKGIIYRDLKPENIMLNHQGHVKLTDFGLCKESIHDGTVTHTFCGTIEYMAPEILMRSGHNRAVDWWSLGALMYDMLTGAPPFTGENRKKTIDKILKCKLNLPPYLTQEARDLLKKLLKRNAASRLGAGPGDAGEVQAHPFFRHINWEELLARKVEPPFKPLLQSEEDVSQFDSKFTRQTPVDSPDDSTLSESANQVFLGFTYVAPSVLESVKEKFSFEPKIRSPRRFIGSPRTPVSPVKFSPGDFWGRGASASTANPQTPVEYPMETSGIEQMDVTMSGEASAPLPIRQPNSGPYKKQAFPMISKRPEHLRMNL

`Cc1cccc(-c2cnc3occ(-c4ccc(C(=O)O)c(C5CCCC5)c4)c3c2)c1` [SGC-CAMKK2-1 (YL-36)]: the remaining binding at 1 µM at MELK turned out to be 79%; on BRAF(V600E), 100%; at FYN it was 86%; on PRKD2 it was 100%; at ALK(L1196M), 96%; at ACVR1B, 100%. Further, the remaining binding at 1 µM on SGK2 came to 78%; on EGFR(G719S), 77%; at PHKG2, 100%; on PAK4 it was 69%; at S6K1 [1], 100%; at BRK, 100%. For the same compound, the remaining binding at 1 µM in assay [2] is 100%; at PIK3CA(E545K), 94%; on ASK2, 96%; on NEK2 it was 100%; on OSR1, 84%; at KIT(D816V) it was 100%.
On to `O=C(O)c1ccc(-c2coc3ncc(-c4ccccc4)cc23)cc1Cl` [SGC-CAMKK2-1N (UNC-YL-83)], for which the remaining binding at 1 µM turned out to be 90% in [3]; 100% at CDK3; 100% at CDC2L2; 93% at NEK5; 100% on CAMK4; 93% at MERTK. Further, the remaining binding at 1 µM amounted to 91% at CHEK1; 87% on CIT; 100% on AMPK-alpha2; 76% at S6K1 [4]; 89% at MEK3; 54% on TTK. Moreover, the remaining binding at 1 µM on FLT3-autoinhibited turned out to be 91%; on VEGFR2 it was 90%. Also, the “Percent Control” value in the assay with FLT3(ITD,F691L) is 81.
